Data published in patent US20090068286A1, “METHOD OF TREATING CANCER BY ADMINISTRATION OF 5-SUBSTITUTED NUCLEOSIDES” (RESprotect, GmbH, priority 2007, published 2009).
“Also recorded” adds a separate entry of the source.

Experiments:
[1] = test system: advanced pancreatic adenocarcinoma; assay: Pilot study GEM + CIS + BVDU in patients; type: in vivo, human
Protocol: Pilot study: 13 Patients (mean age 61, 69% males, 4 stage III, 9 stage IV) with advanced pancreatic adenocarcinoma were treated with i.v. 1.000 mg/m^2 GEM over 30 min on days 1 and 15 of a 28-day schedule. CIS was administered at 50 mg/m^2. BVDU treatment took place on the same day and for four days after chemotherapy in the recovery phase (each four 125 mg tablets per day, resulting in a total dose of 6.000 mg per treatment cycle). As control, data were used of patients of a preceding study which were treated with GEM and CIS, but not with BVDU. With the intention to obtain a control group with a similar proportion of stage IV and stage III diseases as the 13 patients of the pilot study, […] (6 stage III, 15 stage IV) of 96 patients were selected from the Heinemann study by random generator.
Evaluation: Efficacy was measured by overall survival, objective tumor response rate (ORR, according to WHO criteria in the pilot study and RECIST criteria in the dose finding study) and time to progression (TTP) from the first administration onwards. Serum CA19-9 levels were measured at the start and end of each treatment cycle. Safety was evaluated according to NCI-CTC scale.
Evaluation of Progression: Patients were evaluated every five weeks.
Statistical Methods: Survival curves were generated using the Kaplan-Meier method; survival distributions were compared by the log-rank test (Cox-Mantel), and median survival by the Box and Whisker plot.

AH13r sarcoma cells = assay: Number of AH13r cells under cytostatic ± BVDU and in the recovery phase; type: cell-based, rat
Text: AH13r cells were subjected to increasing doses of the cytostatic mitomycin C (MMC). […] This inhibitory effect was maintained even after discontinuation of the cytostatic in the next cycle, in the so-called recovery phase. The cells without MMC and BVDU continued to grow without inhibition.

AH13r tumor cells = assay: Hoechst 33258/propidium iodide (Hopi) double coloration for apoptosis; type: cell-based, rat; conditions: co-treatment of cytostatic with BVDU
Text: The indication that the reduction in cell number is based on apoptosis, was detected by means of Hoechst 33258/propidium iodide (Hopi) double coloration.

JUN-D = assay: Western Blot analysis of survival pathways: JUN-D; type: cell-based
Protocol: Different “survival pathways” were tested by means of Western Blot analysis. The analyses were implemented according to standard methods, as is described in Sambrook et al., 2001, Molecular Cloning (3rd ed.). Antibody dilutions: P-STAT3 (cell signaling) 1: 500, JUN-D (Santa Cruz, Calif.) 1: 1,000.
The densitometrically determined content of oncogene proteins JUN-D and STAT3 was reduced by a quarter or two thirds after DOX treatment in the recovery phase (r=recovery phase). In the “recovery” only BVDU is given, no cytostatic.

DT-diaphorase (DT-D) = assay: DT-diaphorase activity in cell extracts (dicoumarol-inhibitable NAD(P)H: dichlorophenol indophenol reductase); type: cell-based
Protocol: The measurement of the DT-diaphorase (DT-D) was effected as a dicoumarol-inhibitable NAD(P)H: dichlorophenol indophenol reductase, as described in Hodnick et al., Anal. Biochem 252(1), 1997, 165-168 (incorporated by reference herein in its entirety). Extracts were tested of a similar number of cells which had been treated with DOX±BVDU for DT-D activity.

[2] = 13 patients, BVDU co-treatment with GEM + CIS
[3] = BVDU co-treatment with GEM + CIS

O=c1[nH]c(=O)n([C@H]2C[C@H](O)[C@@H](CO)O2)cc1/C=C/Br [BVDU, (E)-5-(2-bromovinyl)-2′-deoxyuridine]
Median survival [1, 2]: 447 days | Median time to progression (TTP) [1, 2]: 280 days | Remissions / response rate ([1]; 13 patients, WHO criteria, BVDU co-treatment with GEM + CIS): 33% | Patients who live more than two years [1, 3]: 23% | Patients who lived or have lived longer than one year [1, 3]: 77% | Number of patients living longer than one year after first treatment ([1]; BVDU-treatment group): Ten of 13 | Number of patients living more than two years ([1]; BVDU-treatment group): three | Toxic effect on AH13r cells (AH13r sarcoma cells; BVDU given alone): no toxic effect | Cell growth in the recovery phase (AH13r sarcoma cells; after MMC+BVDU, cytostatic discontinued, cells continued to receive BVDU): greatly inhibited in their growth | Apoptosis (HOPI double coloration) (AH13r tumor cells): promotes apoptosis | Inhibition of MMC induced JUN-D overexpression (JUN-D; BVDU given in the “recovery” after MMC): complete inhibition | Reduction of JUN-D protein content (densitometry) (JUN-D; after DOX treatment, recovery phase: only BVDU given, no cytostatic): approximately one quarter; also recorded: a quarter | DT-D activity (DT-diaphorase (DT-D); BVDU alone): increases the DT-D activity constantly, but in part only weakly | DT-D activity relative to control cells or cells treated solely with DOX (DT-diaphorase (DT-D); cells treated with DOX±BVDU): approximately threefold
